Reference: patent US20240335548A1, “MACROMOLECULES” (Starpharma Pty Ltd, priority 2011, published 2024)

Tests used:
[1] = tested on: MDA-MB-231 tumours; assay: Xenograft MDA-MB-231 efficacy study; assay type: in vivo, female Balb/c nude mice
[2] = free drug, footnote of Table 1; cited from earlier work
[3] = tested on: DU145 (Prostate); assay: Cell growth inhibition SRB assay; assay type: cell-based; details: Homo sapiens, DU-145; DU145; 72 hours; equivalent drug loading; average of duplicate
Method: (§1) All solutions were prepared in saline (except docetaxel which was made in ethanol). All solutions were stored at −20° C. All values were based on the equivalent drug loading.

[4] = tested on: MDA-MB-231 (Breast); assay: Cell growth inhibition SRB assay; assay type: cell-based; details: Homo sapiens; MDA-MB-231; 72 hours; equivalent drug loading; average of duplicate
Method: as §1

[5] = tested on: A549 (Lung); assay: Cell growth inhibition SRB assay; assay type: cell-based; details: Homo sapiens; A549; 72 hours; equivalent drug loading; average of duplicate
Method: as §1

[6] = tested on: HT29 (Colon); assay: Cell growth inhibition SRB assay; assay type: cell-based; details: Homo sapiens, HT-29; HT29; 72 hours; equivalent drug loading; average of duplicate
Method: as §1

[7] = tested on: A2058 (Melanoma); assay: Cell growth inhibition SRB assay; assay type: cell-based; details: Homo sapiens; A2058; 72 hours; equivalent drug loading; average of duplicate
Method: as §1

[8] = tested on: MCAS (Ovarian); assay: Cell growth inhibition SRB assay; assay type: cell-based; details: MCAS; 72 hours; equivalent drug loading; average of duplicate
Method: as §1

[9] = tested on: PC-3 (Prostate); assay: Cell growth inhibition SRB assay; assay type: cell-based; details: PC-3; 72 hours; equivalent drug loading; average of duplicate
Method: as §1

[10] = tested on: H460 (Lung); assay: Cell growth inhibition SRB assay; assay type: cell-based; details: Homo sapiens, NCI-H460; H460; 72 hours; equivalent drug loading; average of duplicate
Method: as §1

[11] = tested on: HCT116 (Colon); assay: Cell growth inhibition SRB assay; assay type: cell-based; details: Homo sapiens, HCT-116; HCT116; 72 hours; equivalent drug loading; average of duplicate
Method: as §1

[12] = tested on: ES2 (Ovarian); assay: Cell growth inhibition SRB assay; assay type: cell-based; details: ES2; 72 hours; equivalent drug loading; average of duplicate
Method: as §1

[13] = day 16, one day after final dose
Method: The 20 mice were randomised into 5 groups of four mice (mean tumour volume ˜90 mm^3). Animals were eye bled in the morning for baseline blood cell counts and then drug dosing commenced later that day (day 1). […] A second eye bleed was performed on day 11 (Table 7 A-C). Mice were killed one day following the final drug dose (day 16).

[14] = Pharmacokinetic analysis, plasma half-life after IV administration; details: rat, plasma, iv
Method: The plasma half-lives of tritium labelled docetaxel and the construct from Experiment 8 (c) (prepared using tritium labelled docetaxel) after IV administration into rats were determined (Kaminskas, L. M., Boyd, B. J., Karellas, P., Krippner, G. Y., Lessene, R., Kelly, B and Porter, C. J. H. “The Impact of Molecular Weight and PEG Chain Length on the Systemic Pharmacokinetics of PEGylated Poly-L-Lysine Dendrimers” Molecular Pharm. 2008, 5, 449-463).

[15] = Maximum tolerated dose (MTD) study; assay type: in vivo, female Balb/c mice; details: intravenous once weekly for 3 weeks (day 1, 8 and 15)
Method: Groups of female Balb/c mice were administered an intravenous injection of dendrimer (0.1 ml/10 g body weight) or docetaxel (0.05 ml/10 g body weight) once weekly for 3 weeks (day 1, 8 and 15). Mice were weighed daily and watched for signs of toxicity. Animals were monitored for up to 10 days following the final drug dose. Any mice exceeding ethical endpoints (≥20% body weight loss, poor general health) were immediately sacrificed and observations were noted. […] More than twice the dose of docetaxel could be safely administered using drug dendrimer construct compared to docetaxel alone.

[16] = free cabazitaxel, triphasic PK model; cited from earlier work
[17] = tested on: MDA-MB-231 tumour xenografts; assay: MDA-MB-231 mouse xenograft breast cancer model, SPL9048 study
Method: (§2) References to amounts dosed in mg/kg for the dendrimeric compounds are to the amounts of cabazitaxel that may theoretically be released by the dendrimers.
(§3) Each of the dendrimers was pre-weighed in glass vials and stored at 20° C. until use, and dissolved in saline immediately prior to dosing. Cabazitaxel was purchased from a commercial supplier.
(§4) Female Balb/c nude mice (age 7 weeks) were inoculated subcutaneously on the flank with 3.5×10^6 MDA-MB-231 cells in PBS:Matrigel (1:1). Mice were weighed and tumours measured twice weekly using electronic callipers. Tumour volume (mm^3) was calculated as length (mm)/2×width (mm)^2.
Mice received a small dish containing a food supplement (mixed with food dust) daily. The experiment was ended on day 113 or earlier if an ethical endpoint was met.

[18] = tested on: MDA-MB-231 tumour xenografts; assay: MDA-MB-231 mouse xenograft breast cancer model, SPL8996, SPL9005 and SPL9006 study; details: cabazitaxel 10 mg/kg, days 1, 8 and 22
Method: as §2, §3, §4
Mice received a small dish containing a food supplement (mixed with food dust) daily. The experiment was ended on day 150 or earlier if an ethical endpoint was met.

[19] = Toxicity studies in rats (neutropenia, hematology, microscopic changes); details: 2.5 mg/kg
Description: References to amounts dosed in mg/kg for the dendrimeric compound are to the amounts of cabazitaxel that may theoretically be released by the dendrimer.

## CC(=O)O[C@@]12CO[C@@H]1C[C@H](O)[C@@]1(C)C(=O)[C@H](O)C3=C(C)[C@@H](OC(=O)[C@H](O)[C@@H](NC(=O)OC(C)(C)C)c4ccccc4)C[C@@](O)([C@@H](OC(=O)c4ccccc4)[C@H]21)C3(C)C [Docetaxel, reference compound]
[1]; Day 1, i.v. day 1, 8, 15, docetaxel 15 mg/kg, Exp 3 (b) 20 mg/kg, Exp 8 (c) […] mg/kg
  Mean tumour Volumne mm^3 (sd): 111.94 (6.41), mm^3
[1]; Day 9, same doses
  Mean tumour Volumne mm^3 (sd): 135.57 (18.85), mm^3
[1]; Day 19, same doses
  Mean tumour Volumne mm^3 (sd): 49.92 (11.61), mm^3
[1]; Day 29, same doses
  Mean tumour Volumne mm^3 (sd): 18.81 (2.09), mm^3
[1]; Day 40, same doses
  Mean tumour Volumne mm^3 (sd): 10.75 (1.95), mm^3
[1]; Day 61, same doses
  Mean tumour Volumne mm^3 (sd): 95.94 (33.08), mm^3
[1]; Day 81, same doses
  Mean tumour Volumne mm^3 (sd): 478.67 (169.27), mm^3
[1]; Day 100, same doses
  Mean tumour Volumne mm^3 (sd): 974.83 (302.59), mm^3
[2]
  solubility of the drug in water: The solubility of docetaxel and in water is 5 μg/mL
[3]
  GI50: 2.5 nM
[4]
  GI50: 3.5 nM
[5]
  GI50: 3.5 nM
[6]
  GI50: 1.5 nM
[7]
  GI50: 2 nM
[8]
  GI50: 7 nM
[9]
  GI50: 2.5 nM
[10]
  GI50: 1.5 nM
[11]
  GI50: 0.7 nM
[12]
  GI50: 5 nM
[13]
  Mean Tumour Weights (g) (sd): 0.048 g
[14]
  half-life: < 1 h
[15]
  Tolerated dose: 15 mg/kg docetaxel equivalents

## CO[C@H]1C(=O)[C@]2(C)[C@@H](OC)C[C@H]3OC[C@@]3(OC(C)=O)[C@H]2[C@H](OC(=O)c2ccccc2)[C@]2(O)C[C@H](OC(=O)[C@H](O)[C@@H](NC(=O)OC(C)(C)C)c3ccccc3)C(C)=C1C2(C)C [cabazitaxel, reference compound]
[16]
  initial-phase half-life: 4 min
  intermediate-phase half-life: 2 h
  terminal-phase half-life: 95 h
[17]; cabazitaxel 9 mg/kg
  tumours reaching an ethical tumour volume endpoint by day 98: 9 of 10
[17]; cabazitaxel 9 mg/kg, days 1, 8 and 15
  tumour regrowth evident by day: ≤ 43 days
[18]
  resumption of tumour growth by day: ≤ 60 days

## BHALys[Lys]32[α-DGA-Cabazitaxel]32†[ε-PEG˜2100]32‡ [SPL9048]
[17]; FIG. 1, i.v. days 1, 8 and 15, SPL-9048 9 and 10 mg/kg
  antitumour efficacy (tumour response): complete tumour regression
[17]; FIG. 2, body weight
  tolerability: overall well tolerated
[17]; both doses (9 and 10 mg/kg)
  survival compared with cabazitaxel: significantly extended survival beyond that of cabazitaxel
[19]
  toxicity compared to Jevtana®/cabazitaxel: Reduced toxicity
